The values that follow come from patent US9938281B2 (Merck Sharp & Dohme Corp., priority 2012, dated 2018).

One assay concerns the target T1, PI3K-alpha (Homo sapiens, UniProt P42336).
T1 construct: purchased Upstate; Millipore 14-602
Briefly: HTRF PI3K biochemical assay, alpha isoform. The following applies: ratio PI3K-alpha IC50 value / PI3K-delta IC50 value.

In a further assay the target is T2, PI3K-delta (Homo sapiens, UniProt O00329).
T2 construct: purchased Upstate; Millipore 14-604
Briefly: HTRF PI3K biochemical assay, delta isoform. The following applies: form screened (neutral or TFA salt) given, read-out: PI3Kdelta IC50. For orientation: TR-FRET usually uses a lanthanide donor and a delayed reading to cut background.

Each structure is given as a SMILES string.

T2 sequence (O00329 whole entry): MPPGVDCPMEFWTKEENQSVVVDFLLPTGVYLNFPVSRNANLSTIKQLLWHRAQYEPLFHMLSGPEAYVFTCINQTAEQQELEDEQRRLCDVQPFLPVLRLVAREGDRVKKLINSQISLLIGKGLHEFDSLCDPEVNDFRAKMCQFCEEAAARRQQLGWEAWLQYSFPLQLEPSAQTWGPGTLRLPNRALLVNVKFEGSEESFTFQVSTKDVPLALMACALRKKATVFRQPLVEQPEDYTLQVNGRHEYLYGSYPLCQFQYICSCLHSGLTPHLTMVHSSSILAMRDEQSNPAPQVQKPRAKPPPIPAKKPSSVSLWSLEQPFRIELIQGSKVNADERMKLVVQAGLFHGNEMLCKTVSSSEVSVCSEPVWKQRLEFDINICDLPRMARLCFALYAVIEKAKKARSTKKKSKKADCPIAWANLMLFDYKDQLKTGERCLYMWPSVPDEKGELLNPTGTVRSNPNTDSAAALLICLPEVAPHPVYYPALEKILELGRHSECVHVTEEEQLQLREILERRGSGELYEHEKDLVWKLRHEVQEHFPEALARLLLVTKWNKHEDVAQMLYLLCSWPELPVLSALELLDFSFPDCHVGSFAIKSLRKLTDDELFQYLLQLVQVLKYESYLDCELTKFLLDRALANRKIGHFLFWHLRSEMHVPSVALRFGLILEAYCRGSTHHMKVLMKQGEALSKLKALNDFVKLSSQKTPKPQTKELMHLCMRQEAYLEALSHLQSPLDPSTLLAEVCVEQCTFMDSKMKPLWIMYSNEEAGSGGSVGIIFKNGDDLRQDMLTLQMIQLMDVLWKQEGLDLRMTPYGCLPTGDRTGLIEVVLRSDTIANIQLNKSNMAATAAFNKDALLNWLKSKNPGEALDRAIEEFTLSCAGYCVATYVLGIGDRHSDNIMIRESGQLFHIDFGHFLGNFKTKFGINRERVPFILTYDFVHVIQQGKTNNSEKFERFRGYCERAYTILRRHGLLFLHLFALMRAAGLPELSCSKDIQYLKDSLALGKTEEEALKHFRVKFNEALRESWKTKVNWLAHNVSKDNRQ
T2 sequence (P27986 whole entry partner): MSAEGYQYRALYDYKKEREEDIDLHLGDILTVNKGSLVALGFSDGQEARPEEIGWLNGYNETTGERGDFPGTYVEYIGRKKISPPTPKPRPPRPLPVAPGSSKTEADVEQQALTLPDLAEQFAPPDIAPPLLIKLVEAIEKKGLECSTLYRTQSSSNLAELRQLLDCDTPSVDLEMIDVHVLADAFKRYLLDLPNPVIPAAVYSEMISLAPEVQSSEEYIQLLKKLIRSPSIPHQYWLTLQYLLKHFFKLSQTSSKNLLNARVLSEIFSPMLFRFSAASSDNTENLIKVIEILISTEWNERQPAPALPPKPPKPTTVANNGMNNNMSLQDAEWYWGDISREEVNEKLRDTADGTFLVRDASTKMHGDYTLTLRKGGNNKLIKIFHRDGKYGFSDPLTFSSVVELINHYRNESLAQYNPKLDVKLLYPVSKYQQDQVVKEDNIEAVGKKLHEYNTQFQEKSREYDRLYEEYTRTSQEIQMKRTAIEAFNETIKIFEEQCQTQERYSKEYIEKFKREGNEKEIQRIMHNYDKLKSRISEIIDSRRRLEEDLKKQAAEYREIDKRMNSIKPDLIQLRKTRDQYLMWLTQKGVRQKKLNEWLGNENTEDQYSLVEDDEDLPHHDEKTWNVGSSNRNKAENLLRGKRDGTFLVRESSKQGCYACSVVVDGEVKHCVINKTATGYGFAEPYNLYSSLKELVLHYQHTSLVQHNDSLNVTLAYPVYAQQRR
T1 sequence (P42336 whole entry): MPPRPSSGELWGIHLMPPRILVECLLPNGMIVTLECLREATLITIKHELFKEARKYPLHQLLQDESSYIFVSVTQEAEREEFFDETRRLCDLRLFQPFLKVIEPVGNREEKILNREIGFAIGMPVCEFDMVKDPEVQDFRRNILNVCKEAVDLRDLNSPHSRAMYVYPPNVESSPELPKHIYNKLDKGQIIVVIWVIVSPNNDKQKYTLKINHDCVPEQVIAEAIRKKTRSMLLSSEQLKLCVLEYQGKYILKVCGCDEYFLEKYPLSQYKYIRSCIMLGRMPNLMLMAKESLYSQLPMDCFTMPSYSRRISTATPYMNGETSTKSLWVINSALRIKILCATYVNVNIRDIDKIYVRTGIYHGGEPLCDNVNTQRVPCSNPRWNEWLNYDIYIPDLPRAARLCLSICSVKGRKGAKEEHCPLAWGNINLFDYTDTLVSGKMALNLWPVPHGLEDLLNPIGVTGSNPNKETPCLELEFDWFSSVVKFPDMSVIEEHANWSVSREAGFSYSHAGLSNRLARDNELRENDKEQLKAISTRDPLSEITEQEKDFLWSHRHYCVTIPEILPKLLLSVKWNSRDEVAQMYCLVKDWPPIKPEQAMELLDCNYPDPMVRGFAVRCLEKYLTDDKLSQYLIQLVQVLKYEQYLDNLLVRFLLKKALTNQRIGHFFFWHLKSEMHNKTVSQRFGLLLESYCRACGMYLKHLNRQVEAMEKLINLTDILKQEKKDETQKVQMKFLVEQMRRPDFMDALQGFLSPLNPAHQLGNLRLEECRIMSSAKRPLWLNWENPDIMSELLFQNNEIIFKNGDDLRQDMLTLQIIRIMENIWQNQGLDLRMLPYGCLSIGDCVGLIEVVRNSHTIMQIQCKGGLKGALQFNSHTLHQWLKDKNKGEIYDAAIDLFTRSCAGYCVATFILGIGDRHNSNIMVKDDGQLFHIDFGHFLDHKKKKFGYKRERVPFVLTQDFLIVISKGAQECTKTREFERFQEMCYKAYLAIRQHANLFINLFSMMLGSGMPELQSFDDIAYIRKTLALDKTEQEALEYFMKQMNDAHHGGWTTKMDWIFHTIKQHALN
T1 sequence (P27986 whole entry partner): as the sequence (P27986 whole entry partner) above
Text for PI3K-alpha: The PI3-Kinase biochemical assays were developed to measure the intrinsic potency and compound dependent inhibition of the alpha, beta, delta, and gamma PI3K isoform enzymes. This assay was developed and further optimized from a kit produced by Upstate (Millipore catalog #33-047) and has been configured for HTS and SAR screening. Briefly, this procedure exploits the exquisite specificity and high affinity binding of enzyme reaction substrate phosphatidyl(3,4,5)triphosphate (PIP3) to the GRP1 pleckstrin homology (PH) domain to generate the signal. In the absence of PIP3, an HTRF (Homogeneous Time-Resolved Fluorescence energy transfer) complex is formed consisting of europium (Eu)-labeled anti-GST, GSTtagged GRP1-PH domain, biotin-PIP3 and streptavidin conjugated APC. The native PIP3 produced by PI3-Kinase activity disrupts in a competitive manner the biotin-PIP3 from the PH domain, resulting in the loss of energy transfer (HTRF complex) and a decrease in the signal. The format of this assay is the same for all 4 isoforms of PI3K; the differences lie in the concentration of enzyme used to achieve robust assay window. The alpha, beta, and delta assays are run at 0.5, 1, and 0.3 nM enzymes and the gamma assay is run at 5 nM enzyme. The ATP concentration is 100 uM in the alpha, beta, and delta assays and 50 uM ATP in the gamma assay. All reactions are run at 5 uM PIP2.
Compounds are serially diluted (3-fold in 100% DMSO) across a 384-well polypropylene source plated from column 3 to column 12 and column 13 to column 22, to yield 10 concentration dose response for each test compound. Columns 1, 2, 23 and 24 contain either only DMSO or pharmacological known control inhibitor.
The PI3-Kinase biochemical assay was optimized using the HTRF kit provided by Upstate (Millipore). The assay kit contains six reagents: 1) 4× Reaction Buffer; 2) native PIP2 (substrate); 3) Stop (EDTA); 4) Detection Mix A (Streptavidin-APC); 5) Detection Mix B (Eu-labeled Anti-GST plus GST-tagged PH-domain); 6) Detection Mix C.
PI3Kinase Reaction Buffer is prepared by dilution the stock 1:4 with de-ionized water. […] Enzyme addition and compound pre-incubation are initiated by the addition of 1.25 ul of PI3K (at twice its final concentration) in the 1× reaction buffer to all wells using a BioRaptor. Plates are incubated at room temperature for 15 minutes. Reactions are initiated by addition of 1.25 ul of 2× substrate solution (PIP2 and ATP in 1× reaction buffer) using BioRaptor. Plates are incubated in humidified chamber at room temperature for one hour. Reactions are quenched by addition of 0.625 uL of stop solution to all wells using the BioRaptor. The quenched reactions are then processed to detect product formation by adding 0.625 uL of Detection Solution to all wells using the BioRaptor (Detection mix C, Detection Mix A, and Detection Mix B combined together in an 18:1:1 ratio prepared 2 hours prior to use).
The loss of the HTRF signal is due to the displacement of biotinylated-PIP3 from the PH domain by the PI3K-dependent conversion of PIP2 to PIP3. This loss of signal is nonlinear with respect to both increasing product and time. This non-linear detection will impact accuracy of IC50 calculations; therefore, there is a need for a correction factor to obtain more accurate IC50 values. This correction is derived from a PIP3 standard curve run in a separate assay plate. All data were calculated using the ratio of acceptor (APC) to donor (Europium) fluorescence in each well of the assay plate. […] An IC50 was then calculated fitting the % inhibition data to the equation: % inhibition=min+(Max−min)/1+([inhibitor]/IC50)^n) where min is the % inhibition with inhibitor, max is the signal in DMSO control, and n is the Hill slope.
The determination of relative selectivity for a given compound is defined as the relative ratio of the (PI3K-alphalC50 value/PI3K-delta IC50 value).

With `CCCCNC(=O)N1CC[C@H](Nc2ncnc3c2nc(-c2cnc(C)nc2)n3CC)C1` [Compound 12-23, (3S)-N-butyl-3-{[9-ethyl-8-(2-methylpyrimidin-5-yl)-9H-purin-6-yl]amino}pyrrolidine-1-carboxamide], the “Selectivity versus PI3Kalpha” value at PI3K-alpha was above 10. For the same compound, on PI3K-delta, the IC50 worked out at 3.5 nM.
Consider `CCn1c(-c2cnc(C)nc2)nc2c(N[C@H]3C[C@@H](C(=O)OC)N(C(=O)OC(C)(C)C)C3)ncnc21` [Compound 1-19, 1-tert-butyl 2-methyl (2S,4S)-4-{[9-ethyl-8-(2-methylpyrimidin-5-yl)-9H-purin-6-yl]amino}pyrrolidine-1,2-dicarboxylate], for which the “Selectivity versus PI3Kalpha” value at PI3K-alpha is reported as above 10. The IC50 at PI3K-delta worked out at 69 nM.
As for `CCn1c(C(F)F)nc2c(N[C@H]3CCN(C(=O)C4CC4)C3)ncnc21` [Compound 7-14, N-[(3S)-1-(cyclopropylcarbonyl)pyrrolidin-3-yl]-8-(difluoromethyl)-9-ethyl-9H-purin-6-amine], the “Selectivity versus PI3Kalpha” value at PI3K-alpha is above 10. Also, the IC50 on PI3K-delta turned out to be 22 nM.
For `CCn1c(-c2cnc(C)nc2)nc2c(N[C@H]3CCN(C(=O)C4(O)CCCC4)C3)ncnc21` [Compound 2-58, 1-{[(3S)-3-{[9-ethyl-8-(2-methylpyrimidin-5-yl)-9H-purin-6-yl]amino}pyrrolidin-1-yl]carbonyl}cyclopentanol] the same measures were above 10 and 22 nM.
As to `CCn1ncc(-c2nc3c(N[C@H]4CCN(C(=O)C5CCOCC5)C4)ncnc3n2C)c1C` [Compound 2-4, 8-(1-ethyl-5-methyl-1H-pyrazol-4-yl)-9-methyl-N-[(3S)-1-(tetrahydro-2H-pyran-4-ylcarbonyl)pyrrolidin-3-yl]-9H-purin-6-amine], the “Selectivity versus PI3Kalpha” value on PI3K-alpha is above 10. In addition, the IC50 at PI3K-delta is below 1 nM.
On to `CCn1c(-c2cnc(C)nc2)nc2c(NC3CN(C(=O)C4CC4)CC34CC4)ncnc21` (racemic) [Compound 3-17, (R and S)-N-[5-(cyclopropylcarbonyl)-5-azaspiro[2.4]hept-7-yl]-9-ethyl-8-(2-methylpyrimidin-5-yl)-9H-purin-6-amine], for which the “Selectivity versus PI3Kalpha” value at PI3K-alpha is above 10. Moreover, the IC50 at PI3K-delta is below 1 nM.
For `CCn1c(C(F)F)nc2c(N[C@H]3CCN(C(=O)N4CCC4)C3)ncnc21` [Compound 7-27, N-[(3S)-1-(azetidin-1-ylcarbonyl)pyrrolidin-3-yl]-8-(difluoromethyl)-9-ethyl-9H-purin-6-amine], the “Selectivity versus PI3Kalpha” value on PI3K-alpha is above 10. Also, the IC50 at PI3K-delta stood at 5.2 nM.
For `CCn1c(-c2cnc(C)nc2)nc2c(N[C@H]3CCN(C(=O)[C@@H]4CCCN4C)C3)ncnc21` [Compound 2-43, 9-ethyl-N-[(3S)-1-(1-methyl-L-prolyl)pyrrolidin-3-yl]-8-(2-methylpyrimidin-5-yl)-9H-purin-6-amine], the “Selectivity versus PI3Kalpha” value at PI3K-alpha was above 10. In addition, the IC50 at PI3K-delta amounted to 16 nM.
`CCn1c(-c2cnc(C)nc2)nc2c(N[C@H]3CN[C@@H](C(=O)N(C)C4CC4)C3)ncnc21` [Compound 15-13, (4R)-N-cyclopropyl-4-{[9-ethyl-8-(2-methylpyrimidin-5-yl)-9H-purin-6-yl]amino}-N-methyl-D-prolinamide]: at PI3K-alpha, the “Selectivity versus PI3Kalpha” value is above 10. The IC50 at PI3K-delta was 29 nM.
Take `CCOC(=O)C(C)NC(=O)N1CC[C@H](Nc2ncnc3c2nc(-c2cnc(C)nc2)n3CC)C1` (stereo partly drawn) [Compound 12-18, ethyl N-{[(3S)-3-{[9-ethyl-8-(2-methylpyrimidin-5-yl)-9H-purin-6-yl]amino}pyrrolidin-1-yl]carbonyl}(D and L)-alaninate]: the “Selectivity versus PI3Kalpha” value on PI3K-alpha is above 10. For the same compound, the IC50 at PI3K-delta worked out at 13 nM.
On to `CCn1c(-c2cnc(C)nc2)nc2c(N[C@H]3CCN(c4ccc(C#N)cn4)C3)ncnc21` [Compound 4-11, 6-[(3S)-3-{[9-ethyl-8-(2-methylpyrimidin-5-yl)-9H-purin-6-yl]amino}pyrrolidin-1-yl]pyridine-3-carbonitrile], for which the “Selectivity versus PI3Kalpha” value at PI3K-alpha was above 10. In addition, on PI3K-delta, the IC50 is 12 nM.
As for `CCn1c(-c2cnc3c(cnn3C)c2)nc2c(N[C@H]3CCN(C(=O)C4CC4)C3)ncnc21` [Compound 3-35, N-[(3S)-1-(cyclopropylcarbonyl)pyrrolidin-3-yl]-9-ethyl-8-(1-methyl-1H-pyrazolo[3,4-b]pyridin-5-yl)-9H-purin-6-amine], the “Selectivity versus PI3Kalpha” value at PI3K-alpha is reported as above 10. The IC50 at PI3K-delta was below 1 nM.
Turning to `CCn1c(C(=O)N(C)C)nc2c(N[C@H]3CCN(C(=O)C4CC4)C3)ncnc21` [Compound 6-5, 6-{[(3S)-1-(cyclopropylcarbonyl)pyrrolidin-3-yl]amino}-9-ethyl-N,N-dimethyl-9H-purine-8-carboxamide], the “Selectivity versus PI3Kalpha” value at PI3K-alpha is above 10. Also, the IC50 on PI3K-delta was determined as 800 nM.
As for `CCn1c(-c2cnc(C)nc2)nc2c(N[C@H]3CCN(C(=O)NCC(F)(F)F)C3)ncnc21` [Compound 12-8, (3S)-3-{[9-ethyl-8-(2-methylpyrimidin-5-yl)-9H-purin-6-yl]amino}-N-(2,2,2-trifluoroethyl)pyrrolidine-1-carboxamide], at PI3K-alpha, the “Selectivity versus PI3Kalpha” value was above 10. Further, the IC50 at PI3K-delta is 9.7 nM.
Take `CCn1c(-c2cnc(C)nc2)nc2c(N[C@H]3C[C@H](C(=O)N[C@@H](C)C(C)C)N(C(=O)C4CC4)C3)ncnc21` [Compound 15-6, (4S)-1-(cyclopropylcarbonyl)-N-[(1S)-1,2-dimethylpropyl]-4-{[9-ethyl-8-(2-methylpyrimidin-5-yl)-9H-purin-6-yl]amino}-D-prolinamide]: the “Selectivity versus PI3Kalpha” value on PI3K-alpha is given as above 10. The IC50 at PI3K-delta is 20 nM.
Turning to `CCC(=O)N1CC[C@H](Nc2ncnc3c2nc(-c2cnn(CC)c2C)n3CC(F)F)C1` [Compound 9-4, 9-(2,2-difluoroethyl)-8-(1-ethyl-5-methyl-1H-pyrazol-4-yl)-N-[(3S)-1-propanoylpyrrolidin-3-yl]-9H-purin-6-amine], the “Selectivity versus PI3Kalpha” value on PI3K-alpha was above 10. Besides, the IC50 at PI3K-delta is below 1 nM.
With `CCn1c(-c2cnc(C)nc2)nc2c(N[C@H]3CCN(C(=O)C4CCCCN4)C3)ncnc21` (mixture of isomers) [Compound 2-83, 9-ethyl-8-(2-methylpyrimidin-5-yl)-N-[(3S)-1-((R and S)-piperidin-2-ylcarbonyl)pyrrolidin-3-yl]-9H-purin-6-amine], on PI3K-alpha, the “Selectivity versus PI3Kalpha” value is reported as above 10. At PI3K-delta, the IC50 is 19 nM.
In the case of `CCn1c(-c2cnc(C)nc2)nc2c(N[C@H]3CCN(C(=O)[C@H]4CCCN4C)C3)ncnc21` [Compound 2-42, 9-ethyl-N-[(3S)-1-(1-methyl-D-prolyl)pyrrolidin-3-yl]-8-(2-methylpyrimidin-5-yl)-9H-purin-6-amine], the “Selectivity versus PI3Kalpha” value on PI3K-alpha is above 10. In addition, at PI3K-delta, the IC50 came to 29 nM.
As to `CCn1c(-c2cnc3[nH]ccc3c2)nc2c(N[C@H]3CCN(C(=O)C4CC4)C3)ncnc21` [Compound 3-24, N-[(3S)-1-(cyclopropylcarbonyl)pyrrolidin-3-yl]-9-ethyl-8-(1H-pyrrolo[2,3-b]pyridin-5-yl)-9H-purin-6-amine], the “Selectivity versus PI3Kalpha” value at PI3K-alpha is on record as above 10. Further, the IC50 on PI3K-delta is below 1 nM.
Turning to `CCn1ncc(-c2nc3c(NC4CN(C(=O)OC(C)(C)C)C4)ncnc3n2C)c1C` [Compound 1-10, tert-butyl 3-((8-(1-ethyl-5-methyl-1H-pyrazol-4-yl)-9-methyl-9H-purin-6-yl)amino)azetidine-1-carboxylate], the “Selectivity versus PI3Kalpha” value at PI3K-alpha is listed as above 10. Also, on PI3K-delta, the IC50 was determined as 15 nM.
